# In patent publication US4066650A, “Keto-aldehyde-amine addition products and method of making same” (priority 1975, dated 1978):
# Key:
# [1] = tested on: Sarcoma-180; test: Anti-tumor action on subcutaneous Sarcoma-180 in mice; assay type: in vivo, Swiss albino mice (Charles River CD-1 strain)
# Description: On the eleventh day (tumer age 14 days) the test and control mice were sacrificed, the tumor or tumorous area was cut out, weighed and stored in formaldehyde for histological examination. At the same time the liver, kidneys, spleen, heart, and a piece of the small intestine were collected and stored in formaldehyde for histopathological evaluation of the effect of the drugs on these tissues and organs.
# The anti-neoplastic action of the drugs was assayed by comparison of the tumor weight present in treated and control animals and expressed as the percent of controls average weight (T/C%). The presence of malignancy in the tumors or tumor-areas of the treated animals was verified by histological examination.
# The reabsorption of tissue, formed between the inocculation of the cancer cells and the onset of the treatment is relatively slow. Treated animals even under strong cancerostatic action of the drugs show a small quantity (100-200 mg) of tissue in the area where the tumor cells where deposited. It is therefore difficult to tell the nature of these residual tissues by macroscopic examination. Most of these residual "lumps" are made up of connective tissues and necrotic, scar tissues. If it were regarded as neoplasia without histological examination the T/C% calculation would give an erratic result in the evaluation of the anti-cancer action of the compound. Histological examination of these "lumps" therefore is exceedingly important in order to arrive at a valid evaluation of the effectiveness of the drugs especially in short-term experiments (10 days) as carried out in the present assays.
# [2] = in vivo; conditions: mouse, in vivo, ip
# Description: (§1) The biological effects of methylglyoxal maleimide ("A") and methylglyoxal glutaconic imide ("B") were determined by tests on normal (non-tumorous) and subcutaneous Sarcoma-180 tumor-bearing mice. […] The compounds were administered by intraperitoneal route and the values were calculated by standard methods (Goldin A., in Meth.Can.Res. 4, p. 193, 1968).
# (§2) A thirty-day survival test was carried out with normal mice to determine any possible delayed toxicity.
# (§3) The test solutions were prepared by dissolving either 38.72 mg of methylglyoxal maleimide ("A") or 5278 mg of methylglyoxal glutaconic imide ("B") in 100 ml of physiological saline. The pH of the solution was adjusted to 6.0, sterilized on Millipore filtration and stored in sterile vials at about 10° C. One […] of such solutions contained 0.387 mg of compound "A" or 52.78 mg of compound "B", respectively and when injected into mice of an average weight of 26 grams the dose was equivalent to 14.884 mg/kg of the compound "A" and 2030 mg/kg of the compound "B".
# (§4) Normal, non-tumor-bearing mice of the same strain, sex and weight were also randomized and placed in separate test groups.
# (§5) The compositions were injected at different dose levels, each dose being double the next-lower dose, with three test groups (30 mice) for each dose level. The injection was effected intraperitoneally into normal and tumor-bearing mice, starting on the fourth day after the inocculation with cancer, once daily for ten consecutive days. […] A proper number of normal and tumorous mice was treated with saline solution in the same manner, frequency and volume as a control experiment. The body weight change and mortality (acute toxicity) were recorded daily.
# (§6) A number of normal animals treated with the drugs in the same manner as the tumorous ones were also sacrificed on the eleventh day, and their organs were collected for histological examination.
# [3] = tested on: normal (non-tumorous) mice; test: Acute toxicity (mortality), body weight change and 30-day survival in normal mice
# Description: as §1, §2, §3, §4, §5, §6
# [4] = Acute toxicity (mortality) and body weight change in Sarcoma-180 tumor-bearing mice; conditions: mouse, in vivo, ip
# Description: as §1, §3
# (§7) Random-bred Swiss albino mice (Charles River CD-1 strain, average weight 26±3 g, females) were inocculated with 25 million Sarcoma-180 cells (in about 0.25 ml of ascitic fluid, cell age 7 days) on the right scapular region. The animals were randomized on the 4th day after the inocculation with the cancer cells, placed in separate test groups of 10 mice per group (5 mice/cage) and weighed.
# (§8) The compositions were injected at different dose levels, each dose being double the next-lower dose, with three test groups (30 mice) for each dose level. The injection was effected intraperitoneally into normal and tumor-bearing mice, starting on the fourth day after the inocculation with cancer, once daily for ten consecutive days. The volume of the injection at each dose level was brought up to 1.0 ml with saline. A proper number of normal and tumorous mice was treated with saline solution in the same manner, frequency and volume as a control experiment. The body weight change and mortality (acute toxicity) were recorded daily.
# [5] = tested on: Sarcoma-180 tumor-bearing mice; test: as above; conditions: tumorous mice
# Description: as §1, §3, §7, §8
smiles,measurement,setting,value
"CC(=O)C(O)N1C(=O)C=CC1=O (stereo not shown) [Methylglyoxal-maleimide, N'-(2-keto-propane-1-ol)-2,5-dioxopyrroline-3-ene]",ED99,"[1]; Mus musculus, Sarcoma-180, ip, 240 h, tumorous mice, i.p. daily for 10 days",1.15 mg/kg
same,IT (therapeutic index LD10/ED90),"[1]; mice, i.p. daily for 10 days",7.46
same,ED%,"[1]; tumorous mice, 0.234 mg/kg i.p. daily for 10 days",> 0.5%
same,ED%,"[1]; tumorous mice, 0.468 mg/kg i.p. daily for 10 days",~ 1%
same,ED%,"[1]; tumorous mice, 0.936 mg/kg i.p. daily for 10 days",60%
same,ED%,"[1]; tumorous mice, 1.872 mg/kg i.p. daily for 10 days",100%
same,ED%,"[1]; tumorous mice, 3.744 mg/kg i.p. daily for 10 days",100%
same,ED%,"[1]; tumorous mice, 7.488 mg/kg i.p. daily for 10 days",100%
same,mortality at 240 h,[2]; 0.234 mg/kg,0%
same,mortality at 240 h,[2]; 0.468 mg/kg,0%
same,mortality at 240 h,[2]; 0.936 mg/kg,0%
same,mortality at 240 h,[2]; 1.872 mg/kg,0%
same,mortality at 240 h,[2]; 3.744 mg/kg,0%
same,mortality at 240 h,[2]; 7.488 mg/kg,0%
same,mortality at 240 h,[2]; 14.896 mg/kg,100%
same,LD10 (maximum tolerated dose at 10% lethality),"[3]; mice, i.p. daily for 10 days",8.59 mg/kg
same,effect of reduction in the total volume of injection on mortality,"[3]; mice, i.p., volume below 1.0 ml/animal/day",increase in mortality
same,Δ body wt,"[3]; normal mice, 0.234 mg/kg i.p. daily for 10 days",+1.0
same,Δ body wt,"[3]; normal mice, 0.468 mg/kg i.p. daily for 10 days",+0.7
same,Δ body wt,"[3]; normal mice, 0.936 mg/kg i.p. daily for 10 days",+0.46
same,Δ body wt,"[3]; normal mice, 1.872 mg/kg i.p. daily for 10 days",+0.39
same,Δ body wt,"[3]; normal mice, 3.744 mg/kg i.p. daily for 10 days",+0.1
same,Δ body wt,"[3]; normal mice, 7.488 mg/kg i.p. daily for 10 days",-0.2
same,30 day mortality rate of all treated nontumorous animals (compared with mortality in 10 days),"[3]; normal mice, i.p. daily for 10 days, 30 day observation",identical
same,mortality at 240 h,[4]; 0.234 mg/kg,0%
same,mortality at 240 h,[4]; 0.468 mg/kg,0%
same,mortality at 240 h,[4]; 0.936 mg/kg,0%
same,mortality at 240 h,[4]; 1.872 mg/kg,0%
same,mortality at 240 h,[4]; 3.744 mg/kg,0%
same,mortality at 240 h,[4]; 7.488 mg/kg,0%
same,mortality at 240 h,[4]; 14.896 mg/kg,100%
same,Δ body wt,[5]; 0.234 mg/kg i.p. daily for 10 days,+0.96
same,Δ body wt,[5]; 0.468 mg/kg i.p. daily for 10 days,+0.65
same,Δ body wt,[5]; 0.936 mg/kg i.p. daily for 10 days,+0.6
same,Δ body wt,[5]; 1.872 mg/kg i.p. daily for 10 days,+0.4
same,Δ body wt,[5]; 3.744 mg/kg i.p. daily for 10 days,+0.3
same,Δ body wt,[5]; 7.488 mg/kg i.p. daily for 10 days,+0.1
